Species: Rattus norvegicus
Test: DrugMatrix - Regimen: Daily Repeat
Format: toxicity, organism-based, Sprague-Dawley
Set-up: regimen Daily Repeat, gender Male, age 6-8 weeks
Conditions: in vivo, po, […], route oral GAVAGE, dose 1.7 mg/Kg, dose level Low; for ABSOLUTE BASOPHIL / ABSOLUTE EOSINOPHIL / ABSOLUTE LYMPHOCYTE / ABSOLUTE MONOCYTE / ABSOLUTE SEGMENTED NEUTROPHIL / BASOPHIL / EOSINOPHIL / ERYTHROCYTE COUNT / HEMATOCRIT / HEMOGLOBIN / LEUKOCYTE COUNT / LYMPHOCYTE / MEAN CORPUSCULAR HEMOGLOBIN / MEAN CORPUSCULAR HEMOGLOBIN CONCENTRATION / MEAN CORPUSCULAR VOLUME / MONOCYTE / NEUTROPHIL / NUCLEATED RED BLOOD CELLS / PLATELET COUNT: tissue Blood; for ALANINE AMINOTRANSFERASE / ALBUMIN / ALKALINE PHOSPHATASE / ASPARTATE AMINOTRANSFERASE / BLOOD UREA NITROGEN / CARBON DIOXIDE / CHLORIDE / CHOLESTEROL / CREATINE PHOSPHOKINASE / CREATININE / GLUCOSE / LACTATE DEHYDROGENASE / LIPASE / PHOSPHORUS / POTASSIUM / SODIUM / TOTAL BILIRUBIN / TOTAL PROTEIN / URIC ACID: tissue Plasma

For `C#C[C@]1(OC(C)=O)CC[C@H]2[C@@H]3CCC4=CC(=O)CC[C@@H]4[C@H]3CC[C@@]21C` [NORETHINDRONE ACETATE], the “ABSOLUTE BASOPHIL” value (72 h, time 3 day) was 0 CELLS/uL, the “ABSOLUTE EOSINOPHIL” value (72 h, time 3 day) was 0 CELLS/uL and the “ABSOLUTE LYMPHOCYTE” value (72 h, time 3 day) was 14146.67 CELLS/uL. For the same compound, the “ABSOLUTE MONOCYTE” value (72 h, time 3 day) was 167 CELLS/uL, the “ABSOLUTE SEGMENTED NEUTROPHIL” value (72 h, time 3 day) was 1486.33 CELLS/uL and the BASOPHIL (72 h, time 3 day) was 0%. The EOSINOPHIL (72 h, time 3 day) was 0%, the “ERYTHROCYTE COUNT” value (72 h, time 3 day) was 5.62 x10E6/uL and the HEMATOCRIT (72 h, time 3 day) was 33.97%. For the same compound, the HEMOGLOBIN (72 h, time 3 day) was 13.3 G/DL, the “LEUKOCYTE COUNT” value (72 h, time 3 day) was 15.8 x10E3/uL and the LYMPHOCYTE (72 h, time 3 day) was 89.33%. The “MEAN CORPUSCULAR HEMOGLOBIN” value (72 h, time 3 day) was 23.7 pg, the “MEAN CORPUSCULAR HEMOGLOBIN CONCENTRATION” value (72 h, time 3 day) was 39.17 G/DL and the “MEAN CORPUSCULAR VOLUME” value (72 h, time 3 day) was 60.5 fL. For the same compound, the MONOCYTE (72 h, time 3 day) was 1%, the NEUTROPHIL (72 h, time 3 day) was 9.67% and the “NUCLEATED RED BLOOD CELLS” value (72 h, time 3 day) was 0 /100WBC. For the same compound, the “PLATELET COUNT” value (72 h, time 3 day) was 1255.67 x10E3/uL, the “ALANINE AMINOTRANSFERASE” value (72 h, time 3 day) was 61.67 u/L and the ALBUMIN (72 h, time 3 day) was 4.07 G/DL. For the same compound, the “ALKALINE PHOSPHATASE” value (72 h, time 3 day) was 473.33 u/L, the “ASPARTATE AMINOTRANSFERASE” value (72 h, time 3 day) was 85 u/L and the “BLOOD UREA NITROGEN” value (72 h, time 3 day) was 14.33 mg/dL. For the same compound, the “CARBON DIOXIDE” value (72 h, time 3 day) was 26.67 mmol/L, the CHLORIDE (72 h, time 3 day) was 99.67 MEQ/L and the CHOLESTEROL (72 h, time 3 day) was 62.33 mg/dL. The “CREATINE PHOSPHOKINASE” value (72 h, time 3 day) was 351 u/L, the CREATININE (72 h, time 3 day) was 0.17 mg/dL and the GLUCOSE (72 h, time 3 day) was 158.33 mg/dL. The “LACTATE DEHYDROGENASE” value (72 h, time 3 day) was 371.33 u/L, the LIPASE (72 h, time 3 day) was 10.33 u/L and the PHOSPHORUS (72 h, time 3 day) was 12.87 mg/dL. The POTASSIUM (72 h, time 3 day) was 6.54 MEQ/L, the SODIUM (72 h, time 3 day) was 143.43 MEQ/L and the “TOTAL BILIRUBIN” value (72 h, time 3 day) was 0.17 mg/dL. The “TOTAL PROTEIN” value (72 h, time 3 day) was 5.73 G/DL, the “URIC ACID” value (72 h, time 3 day) was 1.37 mg/dL and the “ABSOLUTE BASOPHIL” value (120 h, time 5 day) was 0 CELLS/uL. For the same compound, the “ABSOLUTE EOSINOPHIL” value (120 h, time 5 day) was 62 CELLS/uL, the “ABSOLUTE LYMPHOCYTE” value (120 h, time 5 day) was 13760.33 CELLS/uL and the “ABSOLUTE MONOCYTE” value (120 h, time 5 day) was 100.67 CELLS/uL. For the same compound, the “ABSOLUTE SEGMENTED NEUTROPHIL” value (120 h, time 5 day) was 1110.33 CELLS/uL, the BASOPHIL (120 h, time 5 day) was 0% and the EOSINOPHIL (120 h, time 5 day) was 0.33%. For the same compound, the “ERYTHROCYTE COUNT” value (120 h, time 5 day) was 5.76 x10E6/uL, the HEMATOCRIT (120 h, time 5 day) was 36.33% and the HEMOGLOBIN (120 h, time 5 day) was 14.4 G/DL. For the same compound, the “LEUKOCYTE COUNT” value (120 h, time 5 day) was 15.03 x10E3/uL, the LYMPHOCYTE (120 h, time 5 day) was 91.67% and the “MEAN CORPUSCULAR HEMOGLOBIN” value (120 h, time 5 day) was 25.07 pg. For the same compound, the “MEAN CORPUSCULAR HEMOGLOBIN CONCENTRATION” value (120 h, time 5 day) was 39.67 G/DL, the “MEAN CORPUSCULAR VOLUME” value (120 h, time 5 day) was 63.17 fL and the MONOCYTE (120 h, time 5 day) was 0.67%. The NEUTROPHIL (120 h, time 5 day) was 7.33%, the “NUCLEATED RED BLOOD CELLS” value (120 h, time 5 day) was 0 /100WBC and the “PLATELET COUNT” value (120 h, time 5 day) was 1087.33 x10E3/uL. For the same compound, the “ALANINE AMINOTRANSFERASE” value (120 h, time 5 day) was 65.33 u/L, the ALBUMIN (120 h, time 5 day) was 4.13 G/DL and the “ALKALINE PHOSPHATASE” value (120 h, time 5 day) was 463.33 u/L. For the same compound, the “ASPARTATE AMINOTRANSFERASE” value (120 h, time 5 day) was 99 u/L, the “BLOOD UREA NITROGEN” value (120 h, time 5 day) was 16 mg/dL and the “CARBON DIOXIDE” value (120 h, time 5 day) was 28.67 mmol/L. For the same compound, the CHLORIDE (120 h, time 5 day) was 98.67 MEQ/L, the CHOLESTEROL (120 h, time 5 day) was 59.33 mg/dL and the “CREATINE PHOSPHOKINASE” value (120 h, time 5 day) was 362.33 u/L. The CREATININE (120 h, time 5 day) was 0.2 mg/dL, the GLUCOSE (120 h, time 5 day) was 142 mg/dL and the “LACTATE DEHYDROGENASE” value (120 h, time 5 day) was 548.33 u/L. It also gave an LIPASE (120 h, time 5 day) of 10.33 u/L, a PHOSPHORUS (120 h, time 5 day) of 12.73 mg/dL and a POTASSIUM (120 h, time 5 day) of 6.67 MEQ/L. The SODIUM (120 h, time 5 day) was 145.33 MEQ/L, the “TOTAL BILIRUBIN” value (120 h, time 5 day) was 0.23 mg/dL and the “TOTAL PROTEIN” value (120 h, time 5 day) was 5.93 G/DL. For the same compound, the “URIC ACID” value (120 h, time 5 day) was 1.63 mg/dL.

Reference: ChEMBL document CHEMBL3885881, “DrugMatrix”
